{"source": "paper PMC9320964", "about": "“Improving the Therapeutic Index of Smp24, a Venom-Derived Antimicrobial Peptide: Increased Activity against Gram-Negative Bacteria” (International Journal of Molecular Sciences, 2022)", "assay_type_in_all_cases": "cell-based", "key": {"sheep erythrocytes": {"system": "sheep erythrocytes", "assay": "Haemolysis assay", "conditions": "peptides 0–512 µg/mL, triplicate, 10% Triton X-100 positive control", "protocol": "Haemolytic activity was determined on sheep erythrocytes as described by Corzo, 2001 [23]. All samples were tested in triplicate and results given as HC50 values. Peptides were examined in the range of 0–512 µg/mL. 10% Triton X-100 was used as a positive control and deionised water with PBS as a negative control."}, "Escherichia coli JM109 [1]": {"system": "Escherichia coli JM109", "assay": "MBC by spot-plating from MIC plate", "conditions": "5 µL aliquots of MIC plate spot-plated onto MH agar in triplicate, 18–24 h at 37 °C", "protocol": "(§1) The bacterial isolates used in this study (Escherichia coli JM109, Staphylococcus aureus SH1000 and Pseudomonas aeruginosa H085180216) were obtained from the culture collection held at Sheffield Hallam University.\n(§2) All antimicrobial assays were performed by a broth microdilution method in Muller Hinton (MH) broth using a CLARIOstar plate reader (BMG Labtech, Offenburg, Germany) to determine the minimum inhibitory concentration (MIC). The MIC was defined as the lowest concentration of antimicrobial peptide at which growth was inhibited when viewed as turbidity (A600 nm) against a negative broth control. To determine the minimum bactericidal concentration (MBC), 5 µL aliquots were taken from the wells of the MIC plate and spot-plated onto MH agar in triplicate. The plates were incubated for 18–24 h at 37 °C."}, "[2]": {"system": "Pseudomonas aeruginosa H085180216", "assay": "MBC by spot-plating from MIC plate", "conditions": "5 µL aliquots of MIC plate spot-plated onto MH agar in triplicate, 18–24 h at 37 °C", "protocol": "as §1, §2"}, "[3]": {"system": "Staphylococcus aureus SH1000", "assay": "MBC by spot-plating from MIC plate", "conditions": "5 µL aliquots of MIC plate spot-plated onto MH agar in triplicate, 18–24 h at 37 °C", "protocol": "as §1, §2"}, "HepG2 cells": {"system": "HepG2 cells", "assay": "LDH cytotoxicity assay", "conditions": "LDH release, human liver HepG2 cells, 0–512 µg/mL, 24 h, 37 °C, triplicate on 2 separate occasions", "protocol": "(§3) An LDH assay (Fisher, Loughborough, UK) was used to determine the cytotoxic potential of the peptides against liver (HepG2) and kidney (HEK293) cells. Cells were grown in accordance with the manufacturer’s protocols. Cells were grown in DMEM containing 1 g/L D-glucose, 10% foetal bovine serum and 1% penicillin-streptomycin. Cells were grown to 80% confluence (37 °C, 5% CO2), washed twice with PBS, trypsinised, re-suspended and seeded at a density of […] in a 96-well plate. Cells were incubated for 24 h, and peptides or lipopeptide antibiotics (0–512 µg/mL) were added and incubated at 37 °C, 5% CO2 for 24 h. LDH release was determined via the manufacturer’s methods. All assays were performed in triplicate on 2 separate occasions. Triton X-100 (10%) was used as a positive control and deionised water as a negative control. Absorbance was read at 490 nm and 680 nm on a plate reader (CLARIOstar). LD50 values were calculated by plotting a dose–response curve and determining the dosage that would cause 50% cell death."}, "HEK293 cells": {"system": "HEK293 cells", "assay": "LDH cytotoxicity assay", "conditions": "LDH release, human kidney HEK293 cells, 0–512 µg/mL, 24 h, 37 °C, triplicate on 2 separate occasions", "protocol": "as §3"}, "Escherichia coli JM109 [4]": {"system": "Escherichia coli JM109", "assay": "MIC by broth microdilution", "conditions": "Muller Hinton broth, turbidity A600 nm", "protocol": "as §1, §2"}, "[5]": {"system": "Pseudomonas aeruginosa H085180216", "assay": "MIC by broth microdilution", "conditions": "Muller Hinton broth, turbidity A600 nm", "protocol": "as §1, §2"}, "[6]": {"system": "Staphylococcus aureus SH1000", "assay": "MIC by broth microdilution", "conditions": "Muller Hinton broth, turbidity A600 nm", "protocol": "as §1, §2"}}, "note": "Marks after values point to notes of the source that are not given here. Residues, ends and D or L forms follow the SMILES beside them. No end group written: not given here."}
{"compound": "IWSALIKAATKLLPSLFGGGKKDS [Smp24 F4A]", "values": [{"measurement": "HC50", "setting": "sheep erythrocytes; listed as F4A", "value": 423, "unit": "µg/mL"}]}
{"compound": "IASFLIKAATKLLPSLFGGGKKDS [Smp24 W2A]", "values": [{"measurement": "HC50", "setting": "sheep erythrocytes; listed as W2A", "value": "> 512", "unit": "µg/mL"}]}
{"compound": "IWSFLIKAATKLLPSLFGGGKKFS [Smp24 D23F]", "values": [{"measurement": "MBC E. coli", "setting": "Escherichia coli JM109 [1]", "value": 32, "unit": "µg/mL"}, {"measurement": "MBC P. aeruginosa", "setting": "[2]", "value": 64, "unit": "µg/mL"}, {"measurement": "MBC S. aureus", "setting": "[3]", "value": 32, "unit": "µg/mL"}, {"measurement": "LD50 HepG2", "setting": "HepG2 cells", "value": ">512 * μg/mL"}, {"measurement": "LD50 HEK293", "setting": "HEK293 cells", "value": 38, "unit": "µg/mL"}, {"measurement": "MIC E. coli", "setting": "Escherichia coli JM109 [4]", "value": 32, "unit": "µg/mL"}, {"measurement": "MIC P. aeruginosa", "setting": "[5]", "value": 64, "unit": "µg/mL"}, {"measurement": "MIC S. aureus", "setting": "[6]", "value": 32, "unit": "µg/mL"}, {"measurement": "HC50", "setting": "sheep erythrocytes", "value": "33 * μg/mL"}]}
{"compound": "CCCCCCCCCC(=O)N[C@@H](Cc1c[nH]c2ccccc12)C(=O)N[C@H](CC(N)=O)C(=O)N[C@@H](CC(=O)O)C(=O)N[C@@H]1C(=O)NCC(=O)N[C@@H](CCCN)C(=O)N[C@@H](CC(=O)O)C(=O)N[C@H](C)C(=O)N[C@@H](CC(=O)O)C(=O)NCC(=O)N[C@H](CO)C(=O)N[C@@H]([C@H](C)CC(=O)O)C(=O)N[C@@H](CC(=O)c2ccccc2N)C(=O)O[C@@H]1C", "note": "[Daptomycin]", "values": [{"measurement": "MBC E. coli", "setting": "Escherichia coli JM109 [1]", "value": ">512", "unit": "µg/mL"}, {"measurement": "MBC P. aeruginosa", "setting": "[2]", "value": ">512", "unit": "µg/mL"}, {"measurement": "MBC S. aureus", "setting": "[3]", "value": 8, "unit": "µg/mL"}, {"measurement": "LD50 HepG2", "setting": "HepG2 cells", "value": ">512", "unit": "µg/mL"}, {"measurement": "LD50 HEK293", "setting": "HEK293 cells", "value": ">512", "unit": "µg/mL"}, {"measurement": "MIC E. coli", "setting": "Escherichia coli JM109 [4]", "value": ">512", "unit": "µg/mL"}, {"measurement": "MIC P. aeruginosa", "setting": "[5]", "value": ">512", "unit": "µg/mL"}, {"measurement": "MIC S. aureus", "setting": "[6]", "value": 4, "unit": "µg/mL"}, {"measurement": "HC50", "setting": "sheep erythrocytes", "value": ">512", "unit": "µg/mL"}, {"measurement": "HC50", "setting": "sheep erythrocytes; listed as daptomycin", "value": "≥ 512", "unit": "µg/mL"}]}
{"compound": "CC[C@H](C)CCCCC(=O)N[C@@H](CCN)C(=O)N[C@H](C(=O)N[C@@H](CCN)C(=O)N[C@H]1CCNC(=O)[C@H]([C@@H](C)O)NC(=O)[C@H](CCN)NC(=O)[C@H](CCN)NC(=O)[C@H](CC(C)C)NC(=O)[C@@H](Cc2ccccc2)NC(=O)[C@H](CCN)NC1=O)[C@@H](C)O", "note": "[Polymyxin B] (HELM PEPTIDE1{[CC[C@H](C)CCCCC(=O)[*:2]].[Dab].T.[Dab].[Dab].[Dab].[dF].L.[Dab].[Dab].T}$PEPTIDE1,PEPTIDE1,5:R3-11:R2$$$V2.0; N-terminus assumed; bridges inferred)", "values": [{"measurement": "MBC E. coli", "setting": "Escherichia coli JM109 [1]", "value": 4, "unit": "µg/mL"}, {"measurement": "MBC P. aeruginosa", "setting": "[2]", "value": 8, "unit": "µg/mL"}, {"measurement": "MBC S. aureus", "setting": "[3]", "value": 64, "unit": "µg/mL"}, {"measurement": "LD50 HepG2", "setting": "HepG2 cells", "value": ">512", "unit": "µg/mL"}, {"measurement": "LD50 HEK293", "setting": "HEK293 cells", "value": 351, "unit": "µg/mL"}, {"measurement": "MIC E. coli", "setting": "Escherichia coli JM109 [4]", "value": 2, "unit": "µg/mL"}, {"measurement": "MIC P. aeruginosa", "setting": "[5]", "value": 2, "unit": "µg/mL"}, {"measurement": "MIC S. aureus", "setting": "[6]", "value": 32, "unit": "µg/mL"}, {"measurement": "HC50", "setting": "sheep erythrocytes", "value": ">512", "unit": "µg/mL"}, {"measurement": "HC50", "setting": "sheep erythrocytes; listed as polymyxin B", "value": "≥ 512", "unit": "µg/mL"}]}
{"compound": "IWSFLIFAATKLLPSLFGGGKKDS [Smp24 K7F]", "values": [{"measurement": "HC50", "setting": "sheep erythrocytes; listed as K7F", "value": 442, "unit": "µg/mL"}]}
